Assay results published in patent publication US6525022B1, “Receptor specific atrial natriuretic peptides” (Genentech, Inc., priority 1993, dated 2003).
Read-outs that look alike come from different tables or passages of the source. Where a SMILES comes first, the peptide text is derived from it. Bridges are numbered along the chain shown (N, C = ends).

Assays:
[1] = biological target: T1, human natriuretic peptide receptor-A expressed in 293 cells (Homo sapiens, UniProt P16066); experiment: cGMP production in 293 cells expressing hNPR-A; format: cell-based
T1 construct: expressed in transfected cells
T1 sequence (P16066 33-1061): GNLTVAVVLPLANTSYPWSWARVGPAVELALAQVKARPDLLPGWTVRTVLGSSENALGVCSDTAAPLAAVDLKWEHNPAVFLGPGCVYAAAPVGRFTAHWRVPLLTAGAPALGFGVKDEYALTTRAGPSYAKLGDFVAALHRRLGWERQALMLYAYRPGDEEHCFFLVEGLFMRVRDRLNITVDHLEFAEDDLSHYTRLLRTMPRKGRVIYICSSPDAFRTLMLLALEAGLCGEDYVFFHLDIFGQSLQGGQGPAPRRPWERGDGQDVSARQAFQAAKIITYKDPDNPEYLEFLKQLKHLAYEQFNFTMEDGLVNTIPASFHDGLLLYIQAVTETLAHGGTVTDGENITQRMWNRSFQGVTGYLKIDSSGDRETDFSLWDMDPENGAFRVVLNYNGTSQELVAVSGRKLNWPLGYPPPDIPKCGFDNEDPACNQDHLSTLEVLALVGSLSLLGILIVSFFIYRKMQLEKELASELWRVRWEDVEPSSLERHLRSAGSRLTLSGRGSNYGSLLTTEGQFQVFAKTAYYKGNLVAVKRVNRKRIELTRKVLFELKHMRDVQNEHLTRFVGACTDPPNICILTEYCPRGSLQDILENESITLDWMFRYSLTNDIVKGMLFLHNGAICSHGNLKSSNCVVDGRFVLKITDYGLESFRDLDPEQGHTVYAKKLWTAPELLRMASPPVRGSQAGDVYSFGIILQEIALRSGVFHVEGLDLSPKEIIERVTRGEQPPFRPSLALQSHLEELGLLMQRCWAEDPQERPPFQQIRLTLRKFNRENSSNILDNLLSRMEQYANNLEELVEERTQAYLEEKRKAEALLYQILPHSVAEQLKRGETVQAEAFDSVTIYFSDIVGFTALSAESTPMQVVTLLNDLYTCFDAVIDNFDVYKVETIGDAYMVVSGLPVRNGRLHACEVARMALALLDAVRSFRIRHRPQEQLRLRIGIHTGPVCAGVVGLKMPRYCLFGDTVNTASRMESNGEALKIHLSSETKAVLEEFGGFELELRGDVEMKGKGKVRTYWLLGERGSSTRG
Procedure: Stable 293 cell lines were maintained in glycine free F-12/Dulbecco's minimal essential medium (50/50, v/v) with 10% dialyzed fetal calf serum, 10 mM Hepes, […] of G418 (Geneticin, GIBCO/BRL), pH 7.2, in a humidified incubator at 37° C. with 7% CO2, 93% air. Cells were passaged using 136.8 mM NaCL, 2.6 mM KCl, 7.9 mM Na2HPO4, 1.4 mM KH2PO4, pH 7.2 (PBS) with 0.5 mM EDTA. For concentration-response experiments log phase cultures of 293 cell lines were passaged to 12 well plates at a density of 2.5×10^5 cells/well. After 48 hours cultures were approximately 50% confluent, and were used for stimulation of cGMP production. Peptide treatments were carried out essentially as described by Lowe and Fendly (1992). Briefly, dried peptide aliquots were resuspended in 0.1% (v/v) acetic acid to a stock concentration of 50 μM, and diluted to 1 μM in F-12/Dulbecco's minimal essential medium (50/50, v/v) with 25 mM Hepes, 0.1% (w/v) bovine serum albumin, 0.1 mM isobutylmethylxanthine at pH 7.2 (stimulation medium). Five-fold serial dilutions were prepared in stimulation medium using polypropylene tubes, then prewarmed to 37° C. before use. Cell culture medium was aspirated prior to adding 0.5 ml of stimulation medium plus peptides to monolayer cultures for 10 minutes at 37° C. Reactions were stopped by addition of 0.5 ml of ice cold 12% trichloroacetic acid to give a final volume of 1 ml. Culture plates were frozen on dry ice and stored at −20° C. prior to assay. For cGMP measurements samples were thawed at room temperature, and processed as described by Koller et al., Science 252:120-123 (1991), for cGMP radioimmunoassay (Biomedical Technologies, Inc). All stimulations were performed in triplicate, and samples were measured in duplicate for cGMP by radioimmumoassay. Predicted peptide concentrations were corrected based on quantitative amino acid analysis of duplicate samples from the same set of peptide aliquots used for the stimulation experiments.
Data analysis. The competition binding curves and cGMP production dose responses were analyzed by the four-parameter logistic equation with the KaleidaGraph™ program (Synergy Software, PA) to obtain estimates of the IC50 or EC50 values. The non linear least-squares curve fitting program SCATPLOT was used to analyze the competition binding curves according to a one-site or two-site binding model for competitor. A two-site binding model is reported when the fit to the data was statistically better (p<0.05) than a one-site fit.

[2] = biological target: human NEP (hNEP), endopeptidase 24.11 (Homo sapiens, UniProt P08473); experiment: Degradation of ANF variants by human NEP, half-life by HPLC
Chain of human NEP (hNEP), endopeptidase 24.11 (P08473 whole entry): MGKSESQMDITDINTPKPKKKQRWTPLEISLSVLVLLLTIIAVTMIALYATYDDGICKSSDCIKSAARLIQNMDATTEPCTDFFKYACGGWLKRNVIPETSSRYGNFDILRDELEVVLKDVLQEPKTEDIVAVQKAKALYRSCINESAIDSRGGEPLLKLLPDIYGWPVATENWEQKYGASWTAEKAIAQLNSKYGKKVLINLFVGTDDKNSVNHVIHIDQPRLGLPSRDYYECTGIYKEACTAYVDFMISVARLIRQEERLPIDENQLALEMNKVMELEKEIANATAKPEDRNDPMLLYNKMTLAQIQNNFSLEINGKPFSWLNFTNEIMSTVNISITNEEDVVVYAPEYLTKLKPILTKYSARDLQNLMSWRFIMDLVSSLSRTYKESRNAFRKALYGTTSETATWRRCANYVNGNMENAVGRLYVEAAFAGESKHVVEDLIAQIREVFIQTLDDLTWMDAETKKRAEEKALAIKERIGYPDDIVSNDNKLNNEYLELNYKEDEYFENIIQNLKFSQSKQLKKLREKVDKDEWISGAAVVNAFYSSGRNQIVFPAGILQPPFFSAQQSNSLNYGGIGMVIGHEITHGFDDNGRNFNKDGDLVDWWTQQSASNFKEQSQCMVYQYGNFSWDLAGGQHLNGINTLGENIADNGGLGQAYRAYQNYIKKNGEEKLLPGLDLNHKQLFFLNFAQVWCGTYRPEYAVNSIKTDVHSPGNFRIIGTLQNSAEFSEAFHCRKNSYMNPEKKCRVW
Procedure: The half-life of various ANF variants was measured according to the following procedure.
ANF Solution: An accurately weighed amount of ANF or variant thereof was diluted with HEPES buffer (5 ml of 1 M HEPES Buffer and 0.1 ml of Tween 20 diluted to a 100 ml volume with DI water) to make a 0.5 mg/ml solution.
hNEP/HEPES Solution: 7.5 μl of a 1 mg/ml solution of hNEP (see U.S. Pat. No. 4,960,700) is dissolved in 992.5 μl of HEPES buffer (as described above) and vortex mixed. The resulting mixture is stored in a silylated Eppendorf tube and periodically checked for activity against an ANF peptide standard.
Assay conditions: 150 μl of an ANF solution in the HEPES buffer is diluted with 820 μl HEPES buffer and vortex mixed (1 sec). Careful note of the time is taken as 30 μl of the hNEP/HEPES solution is added and the solution is vortex mixed for 1 sec. and analyzed by periodic removal of constant volume aliquots by the HPLC autosampler. A 2.5 cm×50 cm, C-18 reversed-phase column (15 micron, 300 Å]) was used and elution was achieved by using a shallow gradient of increasing acetonitrile. The elution conditions consisted of a 10% to 50% acetonitrile (containing 0.1% TFA) gradient at 0.5% min.^−1. The aqueous phase was 0.1% TFA in water. The peak area of the ANP peptide is recorded at these periodic intervals and a half-life is determined from these values.

[3] = isolated human NEP (endopeptidase 24.11) in HEPES buffer, Half-Life (min.), FIG. 7: ANF variants 32 nM/ml, NEP 0.45 μg/ml

Row | Potency in cGMP production compared with rat ANP [1] | Stimulation of cGMP production (agonist efficacy) [1] | half-life at 32 nM/ml [2, 3] | Structure (SMILES) | half-life at 32 nM/ml [2]
1 | potency very similar to rat ANP | full agonists | 334 min | CC[C@H](C)[C@@H]1NC(=O)[C@H](CCCNC(=N)N)NC(=O)[C@H](CC(=O)O)NC(=O)[C@H]([C@@H](C)CC)NC(=O)[C@H](CO)NC(=O)CNC(=O)[C@H]([C@@H](C)O)NC(=O)[C@H](Cc2ccccc2)NC(=O)[C@@H](NC(=O)[C@H](CO)NC(=O)[C@H](CO)NC(=O)[C@H](CCCNC(=N)N)NC(=O)[C@H](CCCNC(=N)N)NC(=O)[C@H](CC(C)C)NC(=O)[C@@H](N)CO)CSSC[C@@H](C(=O)N[C@@H](CC(N)=O)C(=O)N[C@@H](CO)C(=O)N[C@@H](Cc2ccccc2)C(=O)N[C@@H](CCCNC(=N)N)C(=O)N[C@@H](Cc2ccc(O)cc2)C(=O)O)NC(=O)CNC(=O)[C@H](CC(C)C)NC(=O)CNC(=O)[C@H](CO)NC(=O)[C@H](CCC(N)=O)NC(=O)[C@H](C)NC(=O)[C@H](CCCNC(=N)N)NC1=O [ANF 27] | 
2 | potency very similar to rat ANP | full agonists | 2400 min | CC[C@H](C)[C@@H]1NC(=O)[C@H](CCCNC(=N)N)NC(=O)[C@H](CC(=O)O)NC(=O)[C@H]([C@@H](C)CC)NC(=O)[C@H](CO)NC(=O)CNC(=O)[C@H]([C@@H](C)O)NC(=O)[C@H](Cc2ccccc2)NC[C@@H](NC(=O)[C@H](CO)NC(=O)[C@H](CO)NC(=O)[C@H](CCCNC(=N)N)NC(=O)[C@H](CCCNC(=N)N)NC(=O)[C@H](CC(C)C)NC(=O)[C@@H](N)CO)CSSC[C@@H](C(=O)N[C@@H](CC(N)=O)C(=O)N[C@@H](CO)C(=O)N[C@@H](Cc2ccccc2)C(=O)N[C@@H](CCCNC(=N)N)C(=O)N[C@@H](Cc2ccc(O)cc2)C(=O)O)NC(=O)CNC(=O)[C@H](CC(C)C)NC(=O)CNC(=O)[C@H](CO)NC(=O)[C@H](CCC(N)=O)NC(=O)[C@H](C)NC(=O)[C@H](CCCNC(=N)N)NC1=O [ANF 84] | 

Row | Structure (SMILES) | Potency in cGMP production compared with rat ANP [1] | Stimulation of cGMP production (agonist efficacy) [1] | half-life at 32 nM/ml [2, 3] | half-life at 32 nM/ml [2]
3 | CC[C@H](C)[C@@H]1NC(=O)[C@H](CCCNC(=N)N)NC(=O)[C@H](CC(=O)O)NC(=O)[C@H]([C@@H](C)CC)NC(=O)[C@H](CO)NC(=O)CNC(=O)[C@H]([C@@H](C)O)NC(=O)[C@H](Cc2ccccc2)NC(=O)[C@@H](NC(=O)[C@H](CO)NC(=O)[C@H](CO)NC(=O)[C@H](CCCNC(=N)N)NC(=O)[C@H](CCCNC(=N)N)NC(=O)[C@H](CC(C)C)NC(=O)[C@H](CO)NC(=O)[C@H](CCCNC(=N)N)NC(=O)[C@@H]2CCCN2C(=O)[C@H](C)NC(=O)[C@@H](N)[C@@H](C)O)CSSC[C@@H](C(=O)N[C@@H](CC(N)=O)C(=O)N[C@@H](CO)C(=O)N[C@@H](Cc2ccccc2)C(=O)N[C@@H](CCCNC(=N)N)C(=O)N[C@@H](Cc2ccc(O)cc2)C(=O)O)NC(=O)CNC(=O)[C@H](CC(C)C)NC(=O)CNC(=O)[C@H](CO)NC(=O)[C@H](CCC(N)=O)NC(=O)[C@H](C)NC(=O)[C@H](CCCNC(=N)N)NC1=O [ANF 76] (H-TAPRSLRRSSCFTGSIDRIRAQSGLGCNSFRY-OH; disulfide 11-27; C-terminus assumed) | potency very similar to rat ANP | full agonists |  | 1410 min
